Some test systems named below: A498; BT-549; DU-145; HCT-116; HOP-62; Hs-578T; KM12; MDA-N; NCI-H23; NCI-H460; RXF 393; SK-OV-3; SNB-19; SNB-75; T47D; TK-10; U-251; Malme-3M; OVCAR-3.
Test in all cases: NCI anticancer screen, dose series, 48 h

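Method: 48-hour compound exposure of cells in 96-well plates, five concentrations, linear interpolation of endpoints. GI50 = concentration required for 50% inhibition of growth.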 The source made the active and inactive calls. No stated cut-off is given here; in the data, active = GI50 up to about 1.1 µM and inactive = higher.

With `CCCCCCCCCCCCNC(=O)NCC(OCC)OCC`, the GI50 in the assay with A498, in the assay with BT-549, in the assay on DU-145, in the assay on HCT-116, with HOP-62 and in the assay with Hs-578T was > 10 µM (inactive) throughout. Further, the GI50 with KM12, in the assay with MDA-N, with NCI-H23, with NCI-H460, with RXF 393 and in the assay with SK-OV-3 was > 10 µM (inactive) throughout. The GI50 in the assay on SNB-19, with SNB-75, with T47D, with TK-10 and in the assay on U-251 was > 10 µM (inactive) in each case.

Regarding `NC(=S)SCCC(=O)O`, the GI50 in the assay on A498, with BT-549, in the assay on DU-145, in the assay on HCT-116, with HOP-62 and with Hs-578T was > 100 µM (inactive) in each case. Moreover, the GI50 with KM12, in the assay on MDA-N, with Malme-3M, in the assay with NCI-H23, with NCI-H460 and with OVCAR-3 was > 100 µM (inactive) throughout. For the same compound, the GI50 is > 100 µM (inactive) in the assay on SK-OV-3; > 100 µM (inactive) in the assay with SNB-19; > 100 µM (inactive) in the assay with SNB-75; 43.2 µM (inactive) in the assay with T47D; > 100 µM (inactive) in the assay on TK-10; > 100 µM (inactive) in the assay on U-251.

Take `CCOC(=O)C(C)c1nc2cc(F)c(F)cc2[nH]c1=O` (centres undefined): the GI50 in the assay on BT-549, in the assay with DU-145, with HCT-116, in the assay with HOP-62, in the assay on Hs-578T and in the assay with KM12 was > 100 µM (inactive) each time. In addition, the GI50 in the assay with MDA-N, with Malme-3M, in the assay with NCI-H23, in the assay on NCI-H460, in the assay with OVCAR-3 and in the assay with RXF 393 was > 100 µM (inactive) in each case. Further, the GI50 was > 100 µM (inactive) in the assay with SK-OV-3; > 100 µM (inactive) in the assay on SNB-19; > 100 µM (inactive) in the assay with SNB-75; 22.9 µM (inactive) in the assay with T47D; > 100 µM (inactive) with TK-10; > 100 µM (inactive) in the assay on U-251.

As for `COc1cc2c(c(OC)c1OC)-c1ccc(SC)cc1[C@H](OC(=O)c1ccccc1)CC2`, the GI50 in the assay on A498 is 0.437 µM (active); in the assay with BT-549, 0.309 µM (active); in the assay with DU-145, 0.203 µM (active); with HCT-116 it was 0.0817 µM (active); in the assay with Hs-578T it was 0.132 µM (active); in the assay on KM12, 0.0488 µM (active). Moreover, the GI50 in the assay on MDA-N is 0.0136 µM (active); with NCI-H23, 0.0935 µM (active); in the assay on NCI-H460, 0.149 µM (active); in the assay on OVCAR-3 it was 0.199 µM (active); with RXF 393, 0.0334 µM (active); in the assay with SK-OV-3, 5.04 µM (inactive). The GI50 with SNB-19 was 0.0828 µM (active); in the assay on SNB-75 it was > 100 µM (inactive); with T47D it was 27.5 µM (inactive); in the assay on TK-10 it was > 100 µM (inactive); in the assay with U-251, 0.071 µM (active).

For the compound `O=C(O)[C@@H]1CCC(=O)N1C(c1ccc2c(c1)OCO2)c1ccc2c(c1)OCO2`, the GI50 with A498, in the assay with BT-549, in the assay on DU-145, with HCT-116, with HOP-62 and in the assay on Hs-578T was > 100 µM (inactive) throughout. Besides, the GI50 in the assay with KM12, with MDA-N, in the assay on Malme-3M, in the assay on NCI-H23, in the assay with NCI-H460 and with OVCAR-3 was > 100 µM (inactive) each time. The GI50 in the assay on SK-OV-3 was > 10 µM (inactive); in the assay with SNB-19, > 100 µM (inactive); with SNB-75, > 100 µM (inactive); in the assay on T47D it was > 100 µM (inactive); with TK-10 it was > 100 µM (inactive); with U-251, > 100 µM (inactive).

Regarding `Clc1cc(Cl)nc(Nc2ccc3c(c2)CCC3)n1`, the GI50 was 31.3 µM (inactive) in the assay with A498; 48.6 µM (inactive) with BT-549; 61.2 µM (inactive) with DU-145; 28.6 µM (inactive) with HCT-116; 28.4 µM (inactive) in the assay on Hs-578T; 21.4 µM (inactive) in the assay with KM12. Moreover, the GI50 was 40.1 µM (inactive) in the assay on MDA-N; 28.6 µM (inactive) with Malme-3M; 39.6 µM (inactive) in the assay on NCI-H23; 30.4 µM (inactive) with NCI-H460; 32 µM (inactive) in the assay with OVCAR-3; > 100 µM (inactive) with SK-OV-3. Besides, the GI50 is 89.5 µM (inactive) in the assay with SNB-19, 69.3 µM (inactive) in the assay with T47D, 18.1 µM (inactive) with TK-10 and 62.5 µM (inactive) in the assay on U-251.

Regarding `CCOC(=O)/C(=N\Nc1ccc(-n2c(C)nc3ccc(Br)cc3c2=O)cc1)C(C)=O`, the GI50 in the assay with A498 is 52.7 µM (inactive); in the assay on BT-549, 47 µM (inactive); in the assay with DU-145 it was > 100 µM (inactive); with HCT-116, 43.6 µM (inactive); with HOP-62 it was 42.8 µM (inactive); in the assay with Hs-578T it was 29.1 µM (inactive). The GI50 in the assay with KM12 is 59.6 µM (inactive); with MDA-N, 71.1 µM (inactive); in the assay with NCI-H23, 69.5 µM (inactive); in the assay on NCI-H460 it was 99.3 µM (inactive); with OVCAR-3, > 100 µM (inactive); in the assay on SK-OV-3, > 100 µM (inactive). Moreover, the GI50 was 52.1 µM (inactive) in the assay with SNB-19; 30.7 µM (inactive) in the assay with SNB-75; 33.1 µM (inactive) in the assay with T47D; 60.3 µM (inactive) in the assay with TK-10; 59.6 µM (inactive) in the assay with U-251.

For the compound `CC1CC[C@]2(C(=O)O)CCC3(C)C(=C2[C@H]1C)C=CC1[C@@]2(C)CC[C@H](O)C(C)(C)C2CC[C@]13C` (some centres undefined), the GI50 is 33.7 µM (inactive) in the assay on BT-549; 16.6 µM (inactive) with DU-145; 17.6 µM (inactive) in the assay with HCT-116; 21.1 µM (inactive) in the assay on HOP-62; 26 µM (inactive) in the assay on Hs-578T; 31 µM (inactive) in the assay with KM12. Moreover, the GI50 in the assay on MDA-N is 56.9 µM (inactive); in the assay on Malme-3M it was 26.6 µM (inactive); with NCI-H23, 24.9 µM (inactive); in the assay on NCI-H460, 21.6 µM (inactive); in the assay with OVCAR-3 it was 17.5 µM (inactive); with RXF 393, 3.8 µM (inactive). Further, the GI50 is 16.6 µM (inactive) in the assay on SK-OV-3; 30.5 µM (inactive) in the assay on SNB-19; 24.5 µM (inactive) with SNB-75; 19.1 µM (inactive) with T47D; 33.5 µM (inactive) in the assay on TK-10; 29 µM (inactive) with U-251.

(Values after ChEMBL document CHEMBL1201862, “PubChem BioAssay data set” (2004).)
